In ChEMBL document CHEMBL5053510, “Discovery of AS-1763: A Potent, Selective, Noncovalent, and Orally Available Inhibitor of Bruton's Tyrosine Kinase” (J Med Chem, 2021):
Active and inactive are the calls of the source. The rule behind the calls is not given here.

Assays:
OCI-Ly10 [1] = assay: Antiproliferative activity against human OCILY10 cells assessed as reduction in cell proliferation measured after 96 hrs; type: functional, cell-based; conditions: OCI-Ly10, 96 h
OCI-Ly10 [2] = assay: Antitumor activity against human OCILY10 cells in SCID mouse assessed as tumor growth inhibition at 60 mg/kg, po bid measured after 63 days; type: functional; conditions: OCI-Ly10, 1512 h, time 63 day, read-out: TGI
[3] = AUC (0 to last) in mouse at 2 mg/kg, iv; type: ADME, organism-based; set-up: time 0 - last, dose 2 mg/kg, route iv; conditions: in vivo
[4] = biological target: Tyrosine-protein kinase Tec (Homo sapiens, UniProt P42680); assay: Inhibition of human TEC (359 - 631 residues) expressed in baculovirus expression system by mobility shift assay
[5] = Metabolic stability in rat hepatocytes assessed as Intrinsic clearance; type: ADME, cell-based, Hepatocyte
[6] = Clearence in mouse at 2 mg/kg, iv; type: ADME, organism-based; conditions: in vivo
[7] = biological target: Tyrosine-protein kinase ITK/TSK (Homo sapiens) (UniProt Q08881); assay: Inhibition of human ITK (2 - 620 residues) expressed in baculovirus expression system at 0.3 uM by mobility shift assay
Chain of Tyrosine-protein kinase ITK/TSK (Homo sapiens) (Q08881 whole entry, the tested form may be a part): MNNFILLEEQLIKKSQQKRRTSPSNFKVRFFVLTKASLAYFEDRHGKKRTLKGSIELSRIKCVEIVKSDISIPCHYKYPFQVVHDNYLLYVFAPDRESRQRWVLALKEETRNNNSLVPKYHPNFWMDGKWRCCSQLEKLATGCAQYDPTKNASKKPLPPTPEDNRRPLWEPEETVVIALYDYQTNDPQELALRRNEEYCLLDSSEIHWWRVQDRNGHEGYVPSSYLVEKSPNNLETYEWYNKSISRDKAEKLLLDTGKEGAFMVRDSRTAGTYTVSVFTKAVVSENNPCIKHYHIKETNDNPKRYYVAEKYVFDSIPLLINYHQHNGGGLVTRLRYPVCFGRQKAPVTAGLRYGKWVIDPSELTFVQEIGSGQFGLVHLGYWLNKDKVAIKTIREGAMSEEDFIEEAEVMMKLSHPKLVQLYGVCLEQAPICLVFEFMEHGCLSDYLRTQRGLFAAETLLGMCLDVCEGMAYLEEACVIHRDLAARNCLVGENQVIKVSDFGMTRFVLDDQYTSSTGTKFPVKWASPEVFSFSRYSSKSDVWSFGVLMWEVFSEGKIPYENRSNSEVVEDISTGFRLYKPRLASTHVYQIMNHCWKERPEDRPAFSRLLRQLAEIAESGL

[8] = MRT (0 to last) in rat at 2 mg/kg, iv; type: ADME, organism-based; conditions: in vivo
[9] = biological target: Tyrosine-protein kinase Tec (Homo sapiens) (UniProt P42680); assay: Inhibition of human TEC (359- 631) expressed in baculovirus expression system at 0.3 uM by mobility shift assay
OCI-Ly10 [10] = assay: Antitumor activity against human OCILY10 cells xenografted in SCID mouse assessed as tumor growth inhibition at 6 mg/kg, po bid measured after 63 days; type: functional; conditions: OCI-Ly10, 1512 h, time 63 day, read-out: TGI
[11] = biological target: Tyrosine-protein kinase BTK (Mus musculus) (UniProt P35991); assay: In vivo inhibition of autophosphorylation of BTK at Y223 in mouse at 7.5 to 30 mg/kg, po measured up to 8 hrs by Western blot analysis; type: functional, organism-based; conditions: dose 7.5-30 mg/kg
Chain of Tyrosine-protein kinase BTK (Mus musculus) (P35991 whole entry): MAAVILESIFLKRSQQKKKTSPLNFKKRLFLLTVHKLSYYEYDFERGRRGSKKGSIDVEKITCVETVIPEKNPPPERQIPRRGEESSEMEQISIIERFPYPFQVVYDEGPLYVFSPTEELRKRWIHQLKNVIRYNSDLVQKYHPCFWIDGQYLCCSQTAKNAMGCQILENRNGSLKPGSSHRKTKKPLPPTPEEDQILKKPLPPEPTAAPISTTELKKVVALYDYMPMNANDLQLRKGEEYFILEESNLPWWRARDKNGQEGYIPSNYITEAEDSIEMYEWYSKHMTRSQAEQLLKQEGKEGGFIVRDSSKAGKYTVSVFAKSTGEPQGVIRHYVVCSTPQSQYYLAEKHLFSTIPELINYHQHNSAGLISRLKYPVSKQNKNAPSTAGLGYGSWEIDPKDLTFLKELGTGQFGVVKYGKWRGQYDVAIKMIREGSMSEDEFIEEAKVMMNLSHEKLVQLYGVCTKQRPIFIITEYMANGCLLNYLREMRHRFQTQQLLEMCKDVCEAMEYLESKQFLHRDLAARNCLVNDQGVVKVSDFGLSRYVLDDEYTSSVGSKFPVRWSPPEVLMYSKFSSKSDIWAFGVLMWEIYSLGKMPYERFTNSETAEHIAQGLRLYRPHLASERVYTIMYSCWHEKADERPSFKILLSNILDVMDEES

HEL 299 = assay: Cytotoxicity against human HEL 299 cells assessed as cell growth inhibition measured after 96 hrs; type: cell-based; conditions: HEL 299, 96 h
[12] = Plasma protein binding in dog; type: ADME, cell-free, Canis lupus familiaris; conditions: read-out: PPB (converted)
[13] = biological target: Voltage-gated inwardly rectifying potassium channel KCNH2 (Homo sapiens, UniProt Q12809); assay: Inhibition of human ERG
[14] = biological target: Tyrosine-protein kinase ITK/TSK (Homo sapiens, UniProt Q08881); assay: Inhibition of human ITK (2 - 620 residues) expressed in baculovirus expression system by mobility shift assay
Chain of Tyrosine-protein kinase ITK/TSK (Q08881 whole entry, the tested form may be a part): as the sequence (Q08881 whole entry, the tested form may be a part) above

[15] = Volume of distribution in steady state rat at 2 mg/kg, iv; type: ADME, organism-based; conditions: in vivo, read-out: Vdss
Cytochrome P450 2C9 = Cytochrome P450 2C9 (Homo sapiens, UniProt P11712); assay: Inhibition of CYP2C9 (unknown origin); type: ADME
Chain of Cytochrome P450 2C9 (P11712 whole entry): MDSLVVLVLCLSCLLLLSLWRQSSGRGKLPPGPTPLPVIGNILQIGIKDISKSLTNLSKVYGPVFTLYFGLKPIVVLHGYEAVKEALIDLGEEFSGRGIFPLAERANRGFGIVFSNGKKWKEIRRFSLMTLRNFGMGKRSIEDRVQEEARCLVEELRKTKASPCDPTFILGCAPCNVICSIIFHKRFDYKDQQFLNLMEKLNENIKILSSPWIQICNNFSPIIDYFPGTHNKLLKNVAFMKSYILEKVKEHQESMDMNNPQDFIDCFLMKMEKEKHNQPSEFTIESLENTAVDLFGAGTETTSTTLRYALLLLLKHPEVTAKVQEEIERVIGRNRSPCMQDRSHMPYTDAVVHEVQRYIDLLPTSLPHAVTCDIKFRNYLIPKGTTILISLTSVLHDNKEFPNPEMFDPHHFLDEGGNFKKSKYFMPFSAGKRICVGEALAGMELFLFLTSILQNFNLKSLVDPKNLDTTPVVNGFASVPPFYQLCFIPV

[16] = biological target: Tyrosine-protein kinase BTK (Homo sapiens, UniProt Q06187, C481S); assay: Inhibition of BTK C481S mutant (unknown origin) in presence of 1 mM ATP by microplate reader assay
Chain of Tyrosine-protein kinase BTK (Homo sapiens, UniProt Q06187, C481S) (Q06187 2-659 C481S limits assumed): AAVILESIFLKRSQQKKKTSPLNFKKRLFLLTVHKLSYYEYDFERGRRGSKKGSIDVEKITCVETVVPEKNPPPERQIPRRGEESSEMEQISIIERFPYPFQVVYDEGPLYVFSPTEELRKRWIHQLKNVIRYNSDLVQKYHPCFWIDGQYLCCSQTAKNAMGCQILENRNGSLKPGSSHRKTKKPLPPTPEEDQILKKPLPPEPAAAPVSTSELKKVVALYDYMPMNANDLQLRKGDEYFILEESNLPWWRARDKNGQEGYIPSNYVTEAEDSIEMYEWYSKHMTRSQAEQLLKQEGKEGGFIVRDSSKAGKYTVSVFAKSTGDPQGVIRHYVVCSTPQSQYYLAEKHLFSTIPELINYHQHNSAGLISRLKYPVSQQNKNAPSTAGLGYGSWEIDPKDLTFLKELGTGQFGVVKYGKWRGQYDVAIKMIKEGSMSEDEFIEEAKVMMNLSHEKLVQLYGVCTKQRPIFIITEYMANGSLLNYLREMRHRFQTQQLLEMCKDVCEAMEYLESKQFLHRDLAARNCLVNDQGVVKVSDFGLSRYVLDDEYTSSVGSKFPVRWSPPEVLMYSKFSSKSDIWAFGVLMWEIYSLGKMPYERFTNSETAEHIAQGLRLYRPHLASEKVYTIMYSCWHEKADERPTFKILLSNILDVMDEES

[17] = Oral bioavailability in mouse at 15 mg/kg; type: ADME, organism-based; conditions: in vivo
[18] = biological target: Cytoplasmic tyrosine-protein kinase BMX (Homo sapiens) (UniProt P51813); assay: Inhibition of human full-length BMX (1 to 675 residues) expressed in baculovirus expression system at 0.3 uM by mobility shift assay
Chain of Cytoplasmic tyrosine-protein kinase BMX (Homo sapiens) (P51813 whole entry, the tested form may be a part): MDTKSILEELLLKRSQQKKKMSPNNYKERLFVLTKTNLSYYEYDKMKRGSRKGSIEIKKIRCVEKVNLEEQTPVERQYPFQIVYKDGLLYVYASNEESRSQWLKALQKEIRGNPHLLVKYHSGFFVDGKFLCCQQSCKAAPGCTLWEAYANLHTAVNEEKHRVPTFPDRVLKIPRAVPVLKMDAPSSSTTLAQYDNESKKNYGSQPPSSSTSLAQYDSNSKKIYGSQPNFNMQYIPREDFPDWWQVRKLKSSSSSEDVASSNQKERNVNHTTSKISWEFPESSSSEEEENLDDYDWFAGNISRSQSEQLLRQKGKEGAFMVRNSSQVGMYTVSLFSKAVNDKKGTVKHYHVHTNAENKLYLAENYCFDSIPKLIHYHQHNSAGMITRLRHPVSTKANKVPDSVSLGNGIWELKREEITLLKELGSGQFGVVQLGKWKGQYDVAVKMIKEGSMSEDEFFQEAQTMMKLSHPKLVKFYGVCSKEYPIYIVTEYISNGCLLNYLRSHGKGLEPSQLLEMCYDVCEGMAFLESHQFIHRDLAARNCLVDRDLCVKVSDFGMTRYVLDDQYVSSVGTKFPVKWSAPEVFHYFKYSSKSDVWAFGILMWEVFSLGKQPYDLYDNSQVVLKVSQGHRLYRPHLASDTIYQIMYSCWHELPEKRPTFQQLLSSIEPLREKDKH

Cytochrome P450 1A2 = Cytochrome P450 1A2 (Homo sapiens, UniProt P05177); assay: Inhibition of CYP1A2 (unknown origin); type: ADME
Chain of Cytochrome P450 1A2 (P05177 whole entry): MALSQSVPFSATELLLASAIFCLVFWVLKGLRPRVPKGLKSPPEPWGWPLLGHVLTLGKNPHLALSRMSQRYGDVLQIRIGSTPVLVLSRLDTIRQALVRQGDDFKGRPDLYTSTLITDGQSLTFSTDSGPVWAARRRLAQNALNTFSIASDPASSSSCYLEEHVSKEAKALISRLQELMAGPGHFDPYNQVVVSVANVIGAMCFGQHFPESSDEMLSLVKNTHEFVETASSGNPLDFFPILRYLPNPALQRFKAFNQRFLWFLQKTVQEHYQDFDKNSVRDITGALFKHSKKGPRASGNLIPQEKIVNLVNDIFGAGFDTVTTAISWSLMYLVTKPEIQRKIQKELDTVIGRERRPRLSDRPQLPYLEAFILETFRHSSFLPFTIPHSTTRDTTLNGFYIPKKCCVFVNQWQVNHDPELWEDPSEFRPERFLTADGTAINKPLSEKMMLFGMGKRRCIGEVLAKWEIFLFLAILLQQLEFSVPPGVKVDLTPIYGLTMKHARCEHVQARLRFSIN

OCI-Ly10 [19] = assay: Antitumor activity against human OCILY10 cells xenografted in SCID mouse assessed as tumor growth inhibition at 20 mg/kg, po bid measured after 63 days; type: functional; conditions: OCI-Ly10, 1512 h, time 63 day, read-out: TGI
[20] = Initial plasma concentration in dog at 1 mg/kg, iv; type: ADME, organism-based, Canis lupus familiaris
[21] = AUC (0 to last) in dog at 1 mg/kg, iv; type: ADME, organism-based, Canis lupus familiaris; set-up: time 0 - last, dose 1 mg/kg, route iv; conditions: in vivo
[22] = biological target: Epithelial discoidin domain-containing receptor 1 (Homo sapiens, UniProt Q08345); assay: Inhibition of human DDR1 (444 - 876 residues) expressed in baculovirus expression system at 0.3 uM by mobility shift assay
[23] = Half life in mouse at 15 mg/kg, po; type: ADME, organism-based; conditions: in vivo
[24] = Initial plasma concentration in mouse at 2 mg/kg, iv; type: ADME, organism-based
[25] = Tmax in mouse at 15 mg/kg, po; type: ADME, organism-based; conditions: in vivo
[26] = biological target: Tyrosine-protein kinase BTK (Homo sapiens, UniProt Q06187); assay: Inhibition of wild type BTK (unknown origin) in presence of 1 mM ATP by microplate reader assay
Chain of Tyrosine-protein kinase BTK (Homo sapiens, UniProt Q06187) (Q06187 whole entry): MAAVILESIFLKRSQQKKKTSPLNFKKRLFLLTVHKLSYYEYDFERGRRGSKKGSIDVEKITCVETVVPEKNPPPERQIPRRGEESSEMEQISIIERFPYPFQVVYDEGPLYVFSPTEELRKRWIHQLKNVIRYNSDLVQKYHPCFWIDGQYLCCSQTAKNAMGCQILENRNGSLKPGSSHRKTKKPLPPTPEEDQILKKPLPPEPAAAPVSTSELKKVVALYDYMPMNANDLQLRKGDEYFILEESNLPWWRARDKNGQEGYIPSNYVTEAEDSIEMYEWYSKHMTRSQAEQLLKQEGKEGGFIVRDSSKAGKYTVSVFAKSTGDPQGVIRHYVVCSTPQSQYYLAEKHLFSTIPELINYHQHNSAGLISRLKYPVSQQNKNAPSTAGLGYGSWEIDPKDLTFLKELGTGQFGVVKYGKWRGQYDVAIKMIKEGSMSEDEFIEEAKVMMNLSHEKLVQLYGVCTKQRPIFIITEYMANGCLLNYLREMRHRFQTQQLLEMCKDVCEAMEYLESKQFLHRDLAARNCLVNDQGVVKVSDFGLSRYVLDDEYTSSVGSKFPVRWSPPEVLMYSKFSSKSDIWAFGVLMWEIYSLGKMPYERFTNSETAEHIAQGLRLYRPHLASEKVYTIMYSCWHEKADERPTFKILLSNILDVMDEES

OCI-Ly10 [27] = assay: Antitumor activity against human ibrutinib-resistant BTK[C481S] knock-in OCILY10 cells in SCID mouse assessed as tumor growth inhibition at 60 mg/kg, po bid measured after 63 days; type: functional; conditions: OCI-Ly10, 1512 h, time 63 day, read-out: TGI
[28] = Tmax in rat at 15 mg/kg, po; type: ADME, organism-based; conditions: in vivo
[29] = Half life in rat at 2 mg/kg, iv; type: ADME, organism-based; conditions: in vivo
Cytochrome P450 2C8 = Cytochrome P450 2C8 (Homo sapiens, UniProt P10632); assay: Inhibition of CYP2C8 (unknown origin); type: ADME
Chain of Cytochrome P450 2C8 (P10632 whole entry): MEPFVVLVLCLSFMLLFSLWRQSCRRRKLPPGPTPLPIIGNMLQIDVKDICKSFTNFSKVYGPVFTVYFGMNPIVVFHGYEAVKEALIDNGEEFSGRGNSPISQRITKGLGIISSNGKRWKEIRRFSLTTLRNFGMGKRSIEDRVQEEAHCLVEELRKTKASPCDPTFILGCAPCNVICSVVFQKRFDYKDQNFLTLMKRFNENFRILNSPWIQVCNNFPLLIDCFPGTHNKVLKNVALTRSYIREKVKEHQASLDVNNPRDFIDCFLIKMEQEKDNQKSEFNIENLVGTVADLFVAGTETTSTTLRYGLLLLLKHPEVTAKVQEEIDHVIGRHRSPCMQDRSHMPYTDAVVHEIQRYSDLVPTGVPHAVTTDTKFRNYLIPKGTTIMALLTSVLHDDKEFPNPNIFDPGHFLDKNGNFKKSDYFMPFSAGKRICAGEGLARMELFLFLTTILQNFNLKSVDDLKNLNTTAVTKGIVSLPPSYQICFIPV

[30] = Tmax in dog at 5 mg/kg, po; type: ADME, organism-based, Canis lupus familiaris; conditions: in vivo
OCI-Ly10 [31] = assay: Antiproliferative activity against human OCILY10 cells harboring BTK C481S mutant […] gene assessed as reduction in cell viability after 96 hrs; type: functional, cell-based; conditions: OCI-Ly10, 96 h
[32] = Half life in dog at 1 mg/kg, iv; type: ADME, organism-based, Canis lupus familiaris; conditions: in vivo
[33] = biological target: Tyrosine-protein kinase BTK (Mus musculus) (UniProt P35991); assay: Inhibition of BTK in […] mouse blood assessed as reduction in BTK phosphorylation at Tyr223 residue at 30 mg/kg, po measured after 8 hrs; type: organism-based
[34] = MRT (0 to last) in mouse at 2 mg/kg, iv; type: ADME, organism-based; conditions: in vivo
[35] = Plasma protein binding in human; type: ADME, cell-free; conditions: read-out: PPB (converted)
[36] = Half life in rat at 15 mg/kg, po; type: ADME, organism-based; conditions: in vivo
[37] = system: Tyrosine-protein kinase BTK (Homo sapiens), Q06187 [C481S]; assay: Inhibition of human full-length BTK C481S mutant (2 to 659 residues) expressed in baculovirus expression system at 0.3 uM by mobility shift assay
Chain of Tyrosine-protein kinase BTK (Homo sapiens), Q06187 [C481S] (Q06187 whole entry C481S, the tested form may be a part): as the sequence (Q06187 whole entry) above, with C481S counted along it

Compound: Nc1nc(-c2cccc(-n3ccc4cc(C5CC5)cc(F)c4c3=O)c2CO)c2cc(C3=CCN(C4COC4)CC3)[nH]c2n1 [MILREBRUTINIB]
- IC50 (OCI-Ly10 [1]): 0.002 µM
- inhibition in vivo at 60 mg/kg (OCI-Ly10 [2]): 112%
- AUC(0-t) [3]: 1750 ng·h/mL
- IC50 [4]: 0.00134 µM
- CLH [5]: 2.04 mL/min/g
- clearance [6]: 18.8 mL/min/kg
- inhibition [7]: 78.8%
- MRT last [8]: 2.92 h
- inhibition [9]: 99.6%
- inhibition in vivo at 6 mg/kg (OCI-Ly10 [10]): 74.5%
- inhibition [11]: Active
- IC50 (HEL 299): 6.37 µM
- fraction unbound [12]: 0.015
- IC50 [13]: 8.54 µM
- IC50 [14]: 0.0609 µM
- Vd [15]: 3.64 L/kg
- IC50 (Cytochrome P450 2C9): 5.38 µM
- IC50 [16]: 0.00588 µM
- bioavailability [17]: 60.8%
- inhibition [18]: 97.7%
- IC50 (Cytochrome P450 1A2): > 10 µM
- inhibition in vivo at 20 mg/kg (OCI-Ly10 [19]): 81.6%
- C0 [20]: 1280 ng/mL
- AUC(0-t) [21]: 734 ng·h/mL
- inhibition [22]: 53.4%
- half-life [23]: 2.25 h
- C0 [24]: 972 ng/mL
- Tmax [25]: 2 h
- IC50 [26]: 0.00372 µM
- inhibition in vivo at 60 mg/kg (OCI-Ly10 [27]): 73%
- Tmax [28]: 2 h
- half-life [29]: 2.65 h
- IC50 (Cytochrome P450 2C8): 3.17 µM
- Tmax [30]: 0.833 h
- IC50 (OCI-Ly10 [31]): 0.0204 µM
- half-life [32]: 1.29 h
- inhibition [33]: Active
- MRT last [34]: 1.36 h
- fraction unbound [35]: 0.02
- half-life [36]: 3.56 h
- inhibition [37]: 99.8%
